Laboratory results published in US4786755A, “Diphenic acid monoamides” (Warner-Lambert Company, priority 1986, dated 1988).
Read-outs that look alike come from different tables or passages of the source.

Legend:
Human Basophils = assay: Histamine Release from Human Basophils (HHB); assay type: cell-based; conditions: Homo sapiens, 33 μM cpd.
From the text: Histamine Release from Human Basophils (HHB) Procedure for Quantitating Active Histamine Release, and its Inhibition by Drugs, from Basophils of Human Blood Using an Automated Fluorometric Histamine Assay
Mediator (histamine) release from human blood basophils is an assay which provides a model for evaluating potential antiallergy (mediator release inhibitors) compounds.
Blood from allergic donors is obtained from volunteers through the Community Research Clinic. The leukocytes are removed after Hespan® sedimentation, washed and concentrated using calcium and magnesium free Hepes buffered saline and resuspended in Hepes Hepes buffered saline with 1 mM calcium and magnesium added back. The cells are incubated briefly at room temperature with either buffer alone (for measuring spontaneous release and challenge agent stimulated release) 6% perchloric acid (for measuring total available histamine in the cells) or drug at various concentrations. The cells are then either treated with buffer alone (to measure control spontaneous and drug effect on spontaneous release) or appropriate challenge agent (e.g., anti-IgE, antigen) mixed and incubated for 45 minutes at 37° C. in a shaking water bath. The reaction is stopped by centrifugation and the supernate is poured into autoanalyzer sample cups and samples assayed for assayed for histamine content using an automated fluorometric assay. By comparing the histamine release of drug-treated cells and the challenge agent controls, drug inhibition of mediator (histamine) release can be evaluated.
Histamine release is induced by (1) an aqueous antigen extract (short rageweed or house dust), or (2) anti-IgE antisera. Whole human blood is obtained from volunteers through the Community Research Clinic (CRC-92). Volunteers are chosen on the basis of adequate histamine release induced by antigen, or antiIgE antisera challenge. Leukocytes are incubated in vitro with the challenge agents at several concentrations. Dose-response curves for each volunteer, using each challenge agent, are generated. Test compounds are evaluated for inhibition of a near maximal response to one or more challenge agents. By including appropriate controls, it is possble to measure the effect of the test compound, at various concentrations, in several ways: (1) the effect of the compound on histamine release for each challenge agent; (2) the effect of the test compound on spontaneous release of histamine in the absence of the challenge agent (buffer alone); and (3) the effect of the test compound on the histamine assay.
Histamine is assayed using an automated continuous flow system which quantitates samples of 0.4 ml or more in volume, and concentrations of approximately 0.5 ng/ml or more. The rate of analysis is 30 samples/hour.
Methods of preparing leukocytes for this assay are described by Theuson, et al, J. of Immunology, Vol. 123, p. 426 (1979).
Samples are run in triplicate, using either 1.5 ml polypropylene capped reaction tubes, or 5.0 ml plastic uncapped tubes. Test compounds and challenge agents are prepared in HACM buffer, as described above. Fixed volume pipettes are used.
Test compound or vehicle control is added to three reaction tubes at 1.5×the final desired concentration (i.e., 400 μl of test compound per 600 μl total reaction volume). One hundred μl of cells is added to each tube and the mixture is incubated for eight minutes at room temperature, and two minutes at 37° C. before antigen or other stimulus challenge. One hundred μl of the challenge agent at 6× the final concentration is then added, and the final mixture is incubated at 37° C. for 45 minutes in a shaking water bath. This ensures that the cell preparation is constantly in suspension. The reaction is stopped by centrifugation at 2000 RPM for three minutes at 4° C. The supernate (.perspectiveto.500 μl) is poured into 2.0 ml autoanalyzer beakers and assayed for histamine by the fluorometric method. […]

leukotriene receptor = molecular target: T1, leukotriene receptor (Cavia porcellus, UniProt Q2NNR5); assay: Binding of ^3 H-Leukotriene D4 to Guinea Pig Lung Membranes (RBL); conditions: ^3 H-LTD4, guinea pig lung membranes; read-out: IC50 RBL1
T1 construct: 20 mg original tissue wet weight of guinea pig lung membranes; tissue Kuiper Rabbit Farm, Gary, IN (animals); host or cells: guinea pig lung, crude membranes
T1 sequence (Q2NNR5 1-340): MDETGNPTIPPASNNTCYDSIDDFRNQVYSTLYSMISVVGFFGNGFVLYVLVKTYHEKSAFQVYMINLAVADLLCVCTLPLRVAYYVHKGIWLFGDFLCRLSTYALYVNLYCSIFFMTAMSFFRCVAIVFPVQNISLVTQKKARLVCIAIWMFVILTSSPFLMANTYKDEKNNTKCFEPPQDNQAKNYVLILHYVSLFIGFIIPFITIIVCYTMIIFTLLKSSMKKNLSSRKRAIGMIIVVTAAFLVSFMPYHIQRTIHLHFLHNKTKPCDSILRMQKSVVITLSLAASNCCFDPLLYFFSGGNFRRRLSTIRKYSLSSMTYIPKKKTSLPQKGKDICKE
Description: Additionally, the activity, of the compounds having the Formula I of the present invention is determined by the well known leukotriene receptor binding assay that is described by R. F. Bruns, W. J. Thomsen and T. A. Pugsley in Life Sciences, 33, 645 (1983) or the Herxheimer in vivo antiallergy test described in H. Herxheimer, J. Physiol. (London), Vol. 177, p. 251 (1952).
Binding of ^3 H-Leukotriene D4 to Guinea Pig Lung Membranes (RBL)
[14,15-^3 H]leukotriene D4 (^3 H-LTD4) (25 Ci/mmol and 40 Ci/mmol) is purchased from New England Nuclear. Unlabeled LTC4 is a gift of Ono Pharmaceuticals (Japan). LTC4, LTD4, and LTE4 are purchased as methyl esters from Paesel GmbH (Frankfurt, W. Germany). Concentrations of the Paesel leukotrienes are calculated from their absorbance at 280 nm. Leukotriene esters are saponified overnight under N2 in 3.3% potassium carbonate at room temperature. Tritiated leukotrienes are stored as received from New England Nuclear at -20° C. Ono LTC4 (5 μg/ml is stored at -60° C. in phosphate buffer pH 6.8. Saponified Paesel leukotrienes are stored at -60° C. in 3.3% potassium carbonate (pH 9.0-9.5). Aliquots of leukotrienes are taken from stock solutions immediately after thawing, after which the stock solutions are immediately refrozen. 2-Amino-2-(hydroxymethyl)-1,3-propanediol (Tris) is Sigma pH 7.7 pre-set crystals, and dimethylsulfoxide is Aldrich Gold Label.
Preparation of crude lung membranes
Two pairs of lungs (1.3 g) from freshly sacrificed 300 g male guinea pigs (older animals gave substantially lower binding) from Kuiper Rabbit Farm, Gary, IN are disrupted with a Polytron PT 10 (setting 4) for 30 seconds in 20 ml ice-cold 50 mM Tris adjusted with HCl to pH 7.7 at 25° C. (Tris buffer), filtered through a single layer of gauze to remove connective tissue, and centrifuged at 50,000 xg for ten min. The pellet is resuspended by homogenization with a Polytron in 20 ml Tris buffer, centrifuged at 50,000 xg for ten min., resuspended, incubated at 37° C. for 30 minutes, and centrifuged again. The final pellet is resuspended in Tris buffer and either used fresh or stored at -70° C.
All incubations are in triplicate for 60 minutes at 25° C. in 12×75 mm polystyrene tubes containing 1 ml Tris buffer with 20 mg original tissue wet weight of guinea pig lung membranes, 0.2 nM ^3 H-LTD4 (6,000-11,000 cpm), 10 mM MgCl2, and 1% dimethylsulfoxide. Leukotrienes are diluted in Tris buffer. All other test compounds are dissolved at 10 mM in dimethylsulfoxide on the same day as the experiment, and diluted in dimethylsulfoxide to 100× the final incubation concentration. Control incubations receive an equal volume (10 μl) of dimethylsulfoxide; the resulting concentration of dimethylsulfoxide had no effect on binding. ^3 H-LTD4 is diluted to 2 nM in Tris buffer. The membrane suspension (20 mg/0.89 ml) contains sufficient MgCl2 to give 10 mM final concentration in the incubation. […] All additions are performed at 0° C. Immediately after the last addition, the incubation is initiated by agitating the rack of tubes on a vortex mixer and warming to 25° C. in a water bath. Tubes are vortexed at least once more during the incubation to ensure that the membranes remained suspended. Incubations are terminated after 60 minutes by filtering under reduced pressure through 25 mm Whatman GF/B filters followed by rapid washing three times with 4 ml of ice-cold Tris buffer. Filters are added to scintillation vials with 8 ml Formula 947 (New England Nuclear), left overnight, shaken, and the radioactivity counted in a scintillation counter (efficiency 40%). Nonspecific binding, defined as binding of ^3 H-LTD4 in the presence of 100 nM LTC4, is 300-500 cpm for all lots of ^3 H-LTD4. Binding to the filters in the absence of tissue is about 100 cpm, and is not affected by unlabeled LTC4. Specific binding, defined as total binding minus nonspecific binding, varied considerably from lot to lot of ^3 H-LTD4. […]

[1] = tested on: Isolated Guinea Pig Lung Parenchyma; assay: Smooth Muscle Receptor Agonism-Antagonism Activity Evaluations In Vitro (IVAS), LTC4-induced contraction; assay type: cell-based
From the text: Smooth Muscle Receptor Agonism-Antagonism Activity Evaluations In Vitro (IVAS) Isolated Guinea Pig Lung Parenchyma
The potency of a test compound for receptor stimulation or antagonism, for example, can easily be determined since the concentration of the compound to which the muscle cell, or specialized responsive area on this cell, is exposed can be easily controlled and correlated with the recorded activity of muscle contraction or relaxation.
The procedures described herein are specifically concerned with the definition of a test drug action on isolated lung strips. Drug action is characterized either by an action per se on the tissues or by interaction with known smooth muscle receptor stimulants or antagonists.
Usually, the tests will be used to evaluate the ability of a test compound to antagonize the contraction induced by standard agonists in this case LTC4. A relative potency is derived by comparison with one of the standard blocking drugs. In caution, relative potencies of test compounds to known standards are valid only if full dose response curves are generated and the compound compared generate parallel dose/response curves with common maxima. Appropriate "within-trial" comparisons are also necessary.
Molecular antagonists compete with the agonist for the receptor. […] A physiological antagonist produces a response by action on a different receptor that causes an effect in opposition to the agonism.
A permanent isolated bath system is used which facilitates the vertical suspension of a segment of tissue in a small volume of a specific nutritive buffer. Frittered glass terminals provide dispersed bubbles of 95% oxygen and 5% carbon dioxide at the base of the individual tissue baths and the buffer reservoir. All baths and the reservoir are double-jacketed and water at 37° C. is circulated through the jacket of the baths to provide stable temperature regulation. The baths are arranged so that fresh solution from the reservoir passes through a jacketed glass coil to the base of the bath. The bubbling gas stirs the bath solution. During equilibration, fresh solution enters and excess solution is allowed to overflow. Unless a particular drug is required throughout the experiment and it is incorporated in the buffer, individual drugs are introduced directly into the bath by long hypodermic needles to the base of the bath without disturbing the tissue. Drugs are removed by rapidly draining the tissue bath from the bottom and refilling. Tissues are washed a minimum of six times. The emptying and refilling sequence takes only five seconds.
The contraction and relaxation of the smooth muscle preparation can be recorded either isotonically (change in length) or isometrically (change in tension). Isometric transducers are more sensitive and proportional. Isometric contractions are recorded electronically using Grass FT 0.03C force displacement transducers and Beckman Dynagraph recorders. The tissue is suspended vertically with one end of the segment anchored to the bottom of the bath and the other end attached to the mechanical electrical transducer muscle level. The electrical output of this transducer moves a pen on a moving chart in proportion to the force displacement.
Lung tissue is obtained from normal male guinea pigs. The heart and lungs are removed as a unit, placed in buffer, and the lungs are perfused with buffer by the spontaneously beating heart for several minutes.

[2] = Tripeptide challenge, read-out: HHB (Tripeptide), percent inhibition of histamine release
[3] = antigen challenge, read-out: HHB (antigen), percent inhibition of histamine release

SMILES	inhibition at 33 µM (Human Basophils; [2])	inhibition at 33 µM (Human Basophils; [3])	IC50 (leukotriene receptor)	response (r1), of maximum ([1]; 1 ng/ml LTC4, isolated lung strip)	contraction, of maximum ([1]; 3×10^-5 M, isolated guinea pig lung strip)	minimal effective concentration ([1]; Cavia porcellus, isolated guinea pig lung strip, read-out: threshold dose (contraction of lung strip))
O=C(O)c1ccccc1-c1ccccc1C(=O)Nc1ccc(CCc2ccc(C(F)(F)F)cc2)cc1 [Example 10]	74%	62%	9.7 µM	–	–	–
O=C(O)c1ccccc1-c1ccccc1C(=O)Nc1ccccc1CCc1ccc(Cl)c(Cl)c1 [Example 12, [1,1'-Biphenyl]-2-carboxylic acid, 2'-[[[2-[2-(3,4-dichlorophenyl)ethyl]phenyl]amino]carbonyl]-]	99%	-42%	13.7 µM	–	–	–
CC(C)(C)c1cc(CCc2ccc(NC(=O)c3ccccc3-c3ccccc3C(=O)O)cc2)cc(C(C)(C)C)c1O [Example 14, [1,1'-Biphenyl]-2-carboxylic acid, 2'-[[[4-[2-[3,5-bis(1,1-dimethylethyl)-4-hydroxyphenyl]ethyl]phenyl]amino]carbonyl]-]	96%	41%	3.7 µM	–	–	–
O=C(O)c1ccccc1-c1ccccc1C(=O)Nc1cccc(Cc2ccc(Cl)c(Cl)c2)c1 [Example 17, [1,1'-Biphenyl]-2-carboxylic acid, 2'-[[[3-[(3,4-dichlorophenyl)methyl]phenyl]amino]carbonyl]-]	97%	–	10.5 µM	–	–	–
Cc1ccc(CCc2ccc(NC(=O)c3ccccc3-c3ccccc3C(=O)O)cc2)cc1 [Example 18, [1,1'-Biphenyl]-2-carboxylic acid, 2'-[[[4-[2-(4-methylphenyl)ethyl]phenyl]amino]carbonyl]-]	98%	60%	16.5 µM	–	–	–
CCCCC/C=C\C\C=C/C=C/C=C/[C@@H](SC[C@H](NC(=O)CC[C@H](N)C(=O)O)C(=O)NCC(=O)O)[C@@H](O)CCCC(=O)O [LTC4, leukotriene C4]	–	–	–	15-20%	–	–
NCCc1c[nH]cn1 [histamine]	–	–	–	–	approximately 75%	~3 µM
